Results on three molecules are retold here after article PMC10663516 (Scientific Reports, 2023).

Details of data set [1]: method as in PMID 29241979. Conditions: phase 2 MCL study; cited from earlier work.
Details of data set [2]: method as in PMID 20615965. Particulars: mice, oral, 14.2 mg/kg; cited from earlier work.
Another data set deals with BTK (Homo sapiens, UniProt Q06187). Nature of the data set: BTK phosphorylation in Ramos cells after anti-IgM stimulation (ProteinSimple Wes). In kind it is cell-based. Also noted: endogenous in cells; host or cells: Ramos Burkitt's lymphoma cells (ATCC CRL-1596).
The next data set has as its system GCB-DLBCL cell lines. Nature of the data set: Cell viability, ATPlite, GCB-DLBCL panel. Particulars: Homo sapiens; all GCB-DLBCL cell lines, 72 h; read-out: IC50s in GCB-DLBCL cell lines. Type of data set: cell-based. How it is done: (§1) The potency of TL-895 effects on cell viability was further examined in vitro in a panel of diffuse large B-cell lymphoma (DLBCL) and MCL cell lines, comprising ten germinal B-cell like subtype (GCB)-DLBCL cell lines, six activated B-cell like (ABC)-DLBCL cell lines, and six MCL cell lines (Horizon Discovery Inc, Cambridge MA, USA). Cells were seeded into 384-well plates (500 cells/well) and incubated (37 °C for 24 h) before treatment with varying concentrations of TL-895 for 72 h. ATP levels were analyzed using the ATPlite Luminescence Assay System (Perkin Elmer, UK). Growth inhibition and maximum response were calculated using the Chalice Analyzer (Horizon Discovery Inc).

The target of a further data set is T1, Txk (Homo sapiens, UniProt P42681).
T1 construct: purchased EMD Millipore
The experiment in a line: Millipore Kinase Profiler screening panel, Txk. Type of data set: biochemical. The procedure: (§2) The Kinase Profiler™ screening panel (EMD Millipore, Burlington, MA, USA) was used to test the inhibitory activity of TL-895 against 270 protein kinases. Kinases were incubated with TL-895 (1 µM) for 20 min to 4 h at room temperature, according to standard kinome screen procedures. […]

A further data set deals with T2, BMX (Homo sapiens, UniProt P51813).
T2 construct: purchased EMD Millipore
Nature of the data set: Millipore Kinase Profiler screening panel, BMX. In kind it is biochemical. The procedure: as §2

The conditions of data set [3]: mouse, in vivo, po, 25 mg/kg.
The subject of a further data set is SU-DHL-8-epst. Nature of the data set: Cell viability, ATPlite. Type of data set: cell-based. Particulars: Homo sapiens, SU-DHL-8-epst (ABC-DLBCL), 72 h. The procedure:
as §1

The subject of a further data set is OCI-Ly19. The experiment in a line: Cell viability, ATPlite. In kind it is cell-based. Particulars: Homo sapiens; OCI-Ly19 (GCB-DLBCL), 72 h; read-out: Max response (GI %). The procedure: as §1
Another data set has as its system HU-DHL-1-epst. The experiment in a line: Cell viability, ATPlite. In kind it is cell-based. Conditions: Homo sapiens, HU-DHL-1-epst (GCB-DLBCL), 72 h. How it is done:
as §1

The subject of another data set is DOHH-2. Nature of the data set: Cell viability, ATPlite. In kind it is cell-based. Conditions: Homo sapiens, DOHH-2 (GCB-DLBCL), 72 h. The procedure:
as §1

Another data set concerns SU-DHL-4-epst. Nature of the data set: Cell viability, ATPlite. In kind it is cell-based. Particulars: Homo sapiens, SU-DHL-4-epst (GCB-DLBCL), 72 h. The procedure:
as §1

The next data set deals with JVM-2. Nature of the data set: Cell viability, ATPlite. Conditions: Homo sapiens, JVM-2 (MCL), 72 h. Type of data set: cell-based. The procedure: as §1
A further data set relates to DB. Nature of the data set: Cell viability, ATPlite. Type of data set: cell-based. Conditions: Homo sapiens; DB (GCB-DLBCL), 72 h; read-out: Max response (GI %). How it is done:
as §1

In the next data set the test system is REC-1. The experiment in a line: Cell viability, ATPlite. Type of data set: cell-based. Conditions: Homo sapiens, Rec1, REC-1 (MCL), 72 h. How it is done:
as §1

A further data set concerns Maver-1. The experiment in a line: Cell viability, ATPlite. Type of data set: cell-based. Particulars: Homo sapiens, Maver1, Maver-1 (MCL), 72 h. The procedure: as §1
The subject of a further data set is U-2932. The experiment in a line: Cell viability, ATPlite. Type of data set: cell-based. Particulars: Homo sapiens, U2932, U-2932 (ABC-DLBCL), 72 h. The procedure: as §1
The test system of a further data set is HT. Nature of the data set: Cell viability, ATPlite. In kind it is cell-based. Conditions: Homo sapiens; HT (GCB-DLBCL), 72 h; read-out: Max response (GI %). How it is done:
as §1

Another data set relates to Jeko-1. The experiment in a line: Cell viability, ATPlite. In kind it is cell-based. Particulars: Homo sapiens; Jeko-1 (MCL), 72 h; read-out: Max response (GI %). The procedure: as §1
The test system of a further data set is Toledo. The experiment in a line: Cell viability, ATPlite. Conditions: Homo sapiens, Toledo (GCB-DLBCL), 72 h. In kind it is cell-based. The procedure:
as §1

The next data set concerns GRANTA-519. Nature of the data set: Cell viability, ATPlite. Type of data set: cell-based. Conditions: Homo sapiens; GRANTA-519 (MCL), 72 h; read-out: Max response (GI %). How it is done: as §1
A further data set concerns OCI-Ly18. The experiment in a line: Cell viability, ATPlite. Type of data set: cell-based. Particulars: Homo sapiens, OCI-Ly18 (GCB-DLBCL), 72 h. How it is done: as §1
A further data set deals with Pfeiffer. The experiment in a line: Cell viability, ATPlite. Type of data set: cell-based. Conditions: Homo sapiens, Pfeiffer (GCB-DLBCL), 72 h. The procedure: as §1
For the next data set, the system named is SU-DHL-5-epst. The experiment in a line: Cell viability, ATPlite. Type of data set: cell-based. Particulars: Homo sapiens; SU-DHL-5-epst (GCB-DLBCL), 72 h; read-out: Max response (GI %). How it is done: as §1
For the next data set, the system named is Mino. The experiment in a line: Cell viability, ATPlite. In kind it is cell-based. Conditions: Homo sapiens, Mino (MCL), 72 h. The procedure: as §1

BTK, sequence (Q06187 whole entry): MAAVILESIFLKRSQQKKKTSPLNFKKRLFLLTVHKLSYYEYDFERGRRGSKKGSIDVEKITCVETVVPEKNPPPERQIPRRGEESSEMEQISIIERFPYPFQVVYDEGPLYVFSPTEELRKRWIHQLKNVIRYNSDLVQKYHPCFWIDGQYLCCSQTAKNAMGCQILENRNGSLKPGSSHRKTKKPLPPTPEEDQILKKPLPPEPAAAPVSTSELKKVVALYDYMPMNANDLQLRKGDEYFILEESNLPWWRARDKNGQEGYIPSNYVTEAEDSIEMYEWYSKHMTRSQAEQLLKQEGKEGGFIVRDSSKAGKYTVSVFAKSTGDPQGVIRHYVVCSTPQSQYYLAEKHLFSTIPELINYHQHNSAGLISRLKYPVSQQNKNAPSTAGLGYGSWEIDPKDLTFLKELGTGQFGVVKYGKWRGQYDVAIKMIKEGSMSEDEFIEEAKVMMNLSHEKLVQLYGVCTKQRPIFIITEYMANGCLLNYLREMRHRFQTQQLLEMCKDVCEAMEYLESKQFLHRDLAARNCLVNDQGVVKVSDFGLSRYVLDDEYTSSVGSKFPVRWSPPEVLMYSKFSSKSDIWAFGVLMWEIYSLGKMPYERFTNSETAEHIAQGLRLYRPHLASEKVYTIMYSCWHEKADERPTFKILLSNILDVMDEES
T1 sequence (P42681 whole entry): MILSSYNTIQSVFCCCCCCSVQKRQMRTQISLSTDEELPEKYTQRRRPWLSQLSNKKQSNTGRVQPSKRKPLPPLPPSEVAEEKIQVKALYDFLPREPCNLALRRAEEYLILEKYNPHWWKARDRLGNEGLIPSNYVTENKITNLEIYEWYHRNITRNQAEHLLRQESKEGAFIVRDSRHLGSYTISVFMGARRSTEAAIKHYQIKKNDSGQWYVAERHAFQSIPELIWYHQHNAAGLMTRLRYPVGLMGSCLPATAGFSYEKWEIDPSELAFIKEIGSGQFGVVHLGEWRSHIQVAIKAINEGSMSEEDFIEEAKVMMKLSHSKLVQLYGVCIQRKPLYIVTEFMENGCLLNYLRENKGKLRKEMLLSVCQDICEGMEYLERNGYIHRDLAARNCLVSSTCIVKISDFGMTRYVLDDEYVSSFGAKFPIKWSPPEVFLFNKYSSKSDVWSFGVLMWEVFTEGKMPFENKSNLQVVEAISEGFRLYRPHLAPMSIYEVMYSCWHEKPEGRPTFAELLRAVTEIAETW
T2 sequence (P51813 whole entry): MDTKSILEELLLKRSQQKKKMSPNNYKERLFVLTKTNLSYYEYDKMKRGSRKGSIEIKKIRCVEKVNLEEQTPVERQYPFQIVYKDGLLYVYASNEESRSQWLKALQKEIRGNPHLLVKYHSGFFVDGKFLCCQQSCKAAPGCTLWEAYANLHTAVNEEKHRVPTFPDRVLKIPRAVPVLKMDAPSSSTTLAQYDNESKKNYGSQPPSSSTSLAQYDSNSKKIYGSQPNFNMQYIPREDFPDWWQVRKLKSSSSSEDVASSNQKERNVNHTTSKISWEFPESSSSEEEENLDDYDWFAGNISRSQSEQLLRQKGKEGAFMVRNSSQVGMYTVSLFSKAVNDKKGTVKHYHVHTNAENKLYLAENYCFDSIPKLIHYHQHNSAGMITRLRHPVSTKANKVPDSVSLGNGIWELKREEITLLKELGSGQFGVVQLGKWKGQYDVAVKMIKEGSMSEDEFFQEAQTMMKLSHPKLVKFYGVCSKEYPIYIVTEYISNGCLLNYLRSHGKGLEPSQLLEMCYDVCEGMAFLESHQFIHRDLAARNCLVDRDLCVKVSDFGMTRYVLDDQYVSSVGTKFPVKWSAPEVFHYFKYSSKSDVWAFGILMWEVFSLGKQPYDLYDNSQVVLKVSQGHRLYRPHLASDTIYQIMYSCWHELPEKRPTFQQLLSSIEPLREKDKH

`CC#CC(=O)N1CCC[C@H]1c1nc(-c2ccc(C(=O)Nc3ccccn3)cc2)c2c(N)nccn12` [Acalabrutinib]: in data set [1], the “Adverse event: diarrhea” value is listed as 31%, the “Adverse event: fatigue” value is 27%, the “Adverse event: headache” value was 38% and the “Grade ≥ 3 adverse event: anemia” value was 9%. Further, in [1], the “Grade ≥ 3 adverse event: neutropenia” value is 10% and the “Grade ≥ 3 adverse event: pneumonia” value is reported as 5%.

Regarding `C=CC(=O)N1CCC[C@@H](n2nc(-c3ccc(Oc4ccccc4)cc3)c3c(N)ncnc32)C1` [Ibrutinib], in data set [2], the Exposure is 569 ng·h/mL.

`C=CC(=O)N1CCC(F)(CNc2ncnc(N)c2-c2ccc(Oc3ccccc3)cc2)CC1` [TL-895]: the IC50 on BTK (30 min pre-treatment, anti-IgM stimulation, read-out: IC50, BTK auto-phosphorylation at Y223) is 0.001 to 0.01 µM; with GCB-DLBCL cell lines, above 5 µM; on Txk, 0.062 µM; on BMX it was 0.005 µM; with SU-DHL-8-epst, 25.7 µM; with HU-DHL-1-epst it was 24.9 µM. Moreover, the IC50 amounted to 11.4 µM with DOHH-2; 11.9 µM in the data set with SU-DHL-4-epst; 17.9 µM in the data set with JVM-2; 13 µM in the data set on REC-1; 6.6 µM with U-2932; 5.18 µM in the data set with Toledo. For the same molecule, the figures for the IC50 in the data set with OCI-Ly18, in the data set on Pfeiffer and with Mino were 22.3 µM, 21 µM and 14 µM, respectively. The “Phosphorylation of Y551 on the activation loop” value at BTK (up to highest tested concentration 1 µM) was “not inhibited”. Besides, in data set [3], the “Exposure relative to that needed for 90–95% target occupancy” value is recorded as 8.5 fold. Moreover, the GI50 was determined as 23 µM in the data set with SU-DHL-8-epst; 20.8 µM in the data set on HU-DHL-1-epst; 9.39 µM in the data set on DOHH-2; 10.6 µM with SU-DHL-4-epst; 6.81 µM with JVM-2; 4.26 µM with REC-1. For the same molecule, the GI50 stood at 27.5 µM in the data set with Maver-1; 1.97 µM with U-2932; 3.84 µM in the data set on Toledo; 18.6 µM in the data set with OCI-Ly18; 19.6 µM in the data set on Pfeiffer; 5.58 µM in the data set with Mino. Further, the Emax in the data set on SU-DHL-8-epst (read-out: Max response (GI %)) came out at 62%; in the data set on OCI-Ly19, 36%; in the data set on HU-DHL-1-epst (read-out: Max response (GI %)) it was 73%; with DOHH-2 (read-out: Max response (GI %)), 130%; in the data set on SU-DHL-4-epst (read-out: Max response (GI %)), 94%; with JVM-2 (read-out: Max response (GI %)), 135%. For the same molecule, the Emax in the data set on DB came to 25%; in the data set with REC-1 (read-out: Max response (GI %)), 83%; in the data set with Maver-1 (read-out: Max response (GI %)), 53%; in the data set with U-2932 (read-out: Max response (GI %)), 105%; in the data set with HT, 17%; with Jeko-1, 42%. Also, the Emax turned out to be 195% in the data set on Toledo (read-out: Max response (GI %)); 50% in the data set on GRANTA-519; 68% in the data set on OCI-Ly18 (read-out: Max response (GI %)); 99% in the data set with Pfeiffer (read-out: Max response (GI %)); 42% in the data set with SU-DHL-5-epst; 88% with Mino (read-out: Max response (GI %)).
